Here are results for 13 compounds from patent US12065443B2, “Compounds and pharmaceutical compositions thereof for the treatment of diseases” (priority 2017, dated 2024).

Test [1] concerns the target T1, SIK3 (Homo sapiens, UniProt Q9Y2K2).
T1 construct: purchased SignalChem S12-11G-100
Kind of test: biochemical. A digest of the protocol: (§1)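 Radiometric assay: SIK1, SIK2 or SIK3 phosphorylates AMARA peptide using unlabelled plus [^33P]-γ-ATP, reaction started by ATP addition. Stopped with 150 mM phosphoric acid, filter-harvested and washed; incorporated ^33P counted by scintillation. Controls: 1% DMSO and 10 μM staurosporine final.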

The target in test [2] is T2, SIK1 (Homo sapiens, UniProt P57059).
T2 construct: purchased Carna Biosciences 02-131
T2 sequence (P57059 whole entry): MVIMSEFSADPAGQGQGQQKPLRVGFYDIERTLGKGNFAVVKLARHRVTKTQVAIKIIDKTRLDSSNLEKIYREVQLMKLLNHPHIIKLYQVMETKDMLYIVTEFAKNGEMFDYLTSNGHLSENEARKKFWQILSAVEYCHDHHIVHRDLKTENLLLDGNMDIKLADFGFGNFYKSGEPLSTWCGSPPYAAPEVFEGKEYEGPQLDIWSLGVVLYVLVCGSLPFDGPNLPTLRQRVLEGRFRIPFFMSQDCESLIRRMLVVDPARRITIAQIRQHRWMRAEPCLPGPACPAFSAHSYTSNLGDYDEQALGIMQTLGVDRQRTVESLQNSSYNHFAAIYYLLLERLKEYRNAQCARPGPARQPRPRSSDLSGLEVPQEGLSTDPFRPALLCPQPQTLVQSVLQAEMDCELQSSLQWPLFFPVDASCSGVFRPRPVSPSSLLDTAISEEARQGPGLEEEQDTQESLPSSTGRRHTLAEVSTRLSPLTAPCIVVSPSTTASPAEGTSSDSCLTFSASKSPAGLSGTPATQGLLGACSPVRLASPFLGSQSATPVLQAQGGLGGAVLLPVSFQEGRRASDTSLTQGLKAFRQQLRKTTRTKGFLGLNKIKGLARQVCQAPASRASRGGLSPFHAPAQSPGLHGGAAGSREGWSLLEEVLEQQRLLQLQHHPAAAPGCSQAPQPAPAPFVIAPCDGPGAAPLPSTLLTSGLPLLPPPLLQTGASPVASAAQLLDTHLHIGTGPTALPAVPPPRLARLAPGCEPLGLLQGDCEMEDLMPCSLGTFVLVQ
Kind of test: biochemical. The following applies: 33P radioactive SIK kinase assay, AMARA peptide, 10 μM ATP; read-out: SIK1 IC50. A digest of the protocol:
as §1

Test [3] addresses T3, SIK2 (Homo sapiens, UniProt Q9H0K1).
T3 construct: purchased ThermoFisher Scientific PV4792
Description: biochemical. The following applies: 33P radioactive SIK kinase assay, AMARA peptide, 10 μM ATP. In a few lines: as §1

Test [4] has as its system LPS-induced TNFα secretion in monocyte-derived macrophages (MdM). Description: MdM assay: LPS-triggered TNFα (ELISA). Format: cell-based, human. The following applies: Homo sapiens, Macrophage, LPS-triggered TNFα inhibition. In a few lines:
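TNFα ELISA read on supernatants harvested 20 h after LPS (final 200 ng/mL) stimulation. Cells were day-10 macrophages derived from human blood CD14+ monocytes, exposed to 3-fold compound dilutions for 1 h at 37 °C beforehand, with DMSO held at 0.2%.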
(In an ELISA, binding on a coated surface is turned into a signal by an enzyme label.)

Test [5] has as its system LPS triggered IL-10 secretion in monocyte-derived macrophages (MdM). Kind of test: MdM assay: LPS-triggered IL-10 (ELISA). Format: cell-based, human. The following applies: maximal fold change vs LPS only, median across assays. In a few lines: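 Readout is IL-10FCmax, the median across at least two runs of the highest fold change over LPS-only, from ELISA absorbance at 450 nm of 2 h supernatants. Macrophages came from day-10 cultures of human CD14+ monocytes, were given compound for 1 h at 37° C in 0.2% DMSO, then 200 ng/mL LPS.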

The target in test [6] is T1, SIK3. Kind of test: biochemical. As to conditions: ADP-Glo SIK kinase assay. In a few lines: (§2)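 ADP-Glo luminescent assay of ADP formed by SIK2 or SIK3 with substrate after ATP addition, 120 min at RT. Remaining ATP depleted 40 min, then ADP converted to ATP and read by luciferase luminescence after 30 min. Controls: 1% DMSO and 10 μM staurosporine (final).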
For orientation: ADP-Glo turns the ADP formed in a reaction into a luminescent signal.

Test [7] has as its target T2, SIK1. Kind of test: biochemical. As to conditions: ADP-Glo SIK kinase assay. A digest of the protocol:
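Enzyme–substrate mix was started with ATP and incubated 120 min at RT. ADP formed was quantified by ADP-Glo: 40 min ATP depletion, then 30 min detection reagent converting ADP to ATP for luciferase luminescence, which rises with kinase activity. Controls: 1% DMSO and 10 μM staurosporine (final).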

Test [8] has as its target T3, SIK2. Kind of test: biochemical. As to conditions: ADP-Glo SIK kinase assay. A digest of the protocol: as §2
The test system of test [9] is LPS driven TNFα secretion in Peripheral Blood Mononuclear Cells (PBMC). Kind of test: cells. The test is classed as cell-based. The following applies: Homo sapiens, LPS 1 ng/mL, supernatant after 18-20 h, ELISA.
Description: This assay measures the inhibition of LPS driven TNFα secretion by a test compound in Peripheral Blood Mononuclear Cells (PBMC), which in turn correlates with SIK inhibition.
PBMCs are isolated from human blood samples (buffy coats). The buffy coat is aseptically transferred into a 50 mL Falcon™ tube, and diluted 1/2 in Phosphate Buffered Saline (PBS). […] The tubes are centrifuged for 35 min at 400× g in temperature controlled centrifuge, without brake, at 25° C. PBMCs are aspirated from the white interface layer between sample and Lymphoprep. PBMCs are washed five times in PBS. […] The PBMCs are finally seeded at 400,000 PBMC/160 μL/96-well.
A compound dilution plate is made in 100% DMSO by 3-fold dilution of 10 mM stock solution of test compound. An intermediate dilution plate (10× final concentration) is made by diluting the compound dilution plate 50-fold in RPMI medium.
20 μL of the 10× final concentration compound is added to the cells and incubated for 1 hour at 37° C. before addition of trigger. No trigger conditions/trigger conditions are spiked with equal final DMSO concentrations of 0.2% DMSO. 20 μL of 10×LPS (final concentration 1 ng/mL) solution are added to all wells except for the ‘no trigger wells’ where 20 μL medium is added. Supernatant is collected after 18-20 h for IL-10 and TNFα determination using ELISA.
The plate is then washed once with PBST (PBS+0.05% Tween20) and once with PBS followed by the addition of 100 μL of blocking buffer (1% Bovine Serum Albumin (BSA)-5% Sucrose) and plates are sealed and incubated for at least 4 h at RT. After washing the plate once with PBST and once with PBS, 40 μL of standard or sample are added (TNFα standard curve is prepared using a 1/2 serial dilution starting from 16000 pg/mL; dilutions are made in dilution buffer (PBS+1% BSA)). Plates are washed twice with PBST, and once with PBS, after which 35 μL of the detection antibody is added (final concentration 0.25 μg/mL diluted in dilution buffer) and plates are incubated for at least 2 h at RT. Plates are washed twice with PBST, and once with PBS, where after 35 μL of Strep-HRP conjugate (0.5 μg/mL final concentration diluted in dilution buffer) is added. Plates are incubated in the dark, at RT for at least 45 min but no longer than 1 hour. Plates are washed twice with PBST, and once with PBS. Thereafter, 50 μL of luminol substrate is added to each well (prepared according to manufacturer's instructions), and incubated for 5 min at RT protected from light.
To measure the inhibition of LPS induced TNFα, percentage inhibition (PIN) values are calculated for all concentrations tested, compared to controls.
PIN values are plotted in concentration-response and EC50 values are derived using GraphPad Prism Software, applying 4-parameter nonlinear regression (sigmoidal) curve fitting.

Read-outs that look alike come from different tables or passages of the source.

T3 sequence (Q9H0K1 whole entry): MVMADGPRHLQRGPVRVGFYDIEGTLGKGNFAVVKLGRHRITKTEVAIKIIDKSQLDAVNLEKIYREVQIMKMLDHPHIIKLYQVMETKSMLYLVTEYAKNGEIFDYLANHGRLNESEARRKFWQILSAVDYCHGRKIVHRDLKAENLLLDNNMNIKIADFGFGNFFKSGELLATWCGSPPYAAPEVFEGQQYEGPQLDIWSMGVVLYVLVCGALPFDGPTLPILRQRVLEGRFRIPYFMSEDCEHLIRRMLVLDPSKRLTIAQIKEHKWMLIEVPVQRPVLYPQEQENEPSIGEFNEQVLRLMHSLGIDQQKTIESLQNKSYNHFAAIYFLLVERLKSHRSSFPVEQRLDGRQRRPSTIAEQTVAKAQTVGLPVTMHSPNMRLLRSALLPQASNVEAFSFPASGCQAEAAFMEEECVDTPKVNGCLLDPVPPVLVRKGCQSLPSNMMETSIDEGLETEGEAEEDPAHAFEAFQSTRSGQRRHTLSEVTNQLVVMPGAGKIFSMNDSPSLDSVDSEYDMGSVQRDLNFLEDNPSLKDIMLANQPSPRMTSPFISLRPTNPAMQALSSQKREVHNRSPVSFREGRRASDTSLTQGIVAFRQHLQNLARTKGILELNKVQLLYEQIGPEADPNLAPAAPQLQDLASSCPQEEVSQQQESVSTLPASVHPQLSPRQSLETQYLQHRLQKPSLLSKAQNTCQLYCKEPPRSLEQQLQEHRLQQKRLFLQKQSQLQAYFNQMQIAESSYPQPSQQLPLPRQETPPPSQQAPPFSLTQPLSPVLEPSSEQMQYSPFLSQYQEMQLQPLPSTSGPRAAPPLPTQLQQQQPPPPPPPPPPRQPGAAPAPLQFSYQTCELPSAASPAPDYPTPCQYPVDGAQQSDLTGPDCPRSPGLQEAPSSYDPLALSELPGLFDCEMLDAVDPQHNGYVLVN
T1 sequence (Q9Y2K2 whole entry): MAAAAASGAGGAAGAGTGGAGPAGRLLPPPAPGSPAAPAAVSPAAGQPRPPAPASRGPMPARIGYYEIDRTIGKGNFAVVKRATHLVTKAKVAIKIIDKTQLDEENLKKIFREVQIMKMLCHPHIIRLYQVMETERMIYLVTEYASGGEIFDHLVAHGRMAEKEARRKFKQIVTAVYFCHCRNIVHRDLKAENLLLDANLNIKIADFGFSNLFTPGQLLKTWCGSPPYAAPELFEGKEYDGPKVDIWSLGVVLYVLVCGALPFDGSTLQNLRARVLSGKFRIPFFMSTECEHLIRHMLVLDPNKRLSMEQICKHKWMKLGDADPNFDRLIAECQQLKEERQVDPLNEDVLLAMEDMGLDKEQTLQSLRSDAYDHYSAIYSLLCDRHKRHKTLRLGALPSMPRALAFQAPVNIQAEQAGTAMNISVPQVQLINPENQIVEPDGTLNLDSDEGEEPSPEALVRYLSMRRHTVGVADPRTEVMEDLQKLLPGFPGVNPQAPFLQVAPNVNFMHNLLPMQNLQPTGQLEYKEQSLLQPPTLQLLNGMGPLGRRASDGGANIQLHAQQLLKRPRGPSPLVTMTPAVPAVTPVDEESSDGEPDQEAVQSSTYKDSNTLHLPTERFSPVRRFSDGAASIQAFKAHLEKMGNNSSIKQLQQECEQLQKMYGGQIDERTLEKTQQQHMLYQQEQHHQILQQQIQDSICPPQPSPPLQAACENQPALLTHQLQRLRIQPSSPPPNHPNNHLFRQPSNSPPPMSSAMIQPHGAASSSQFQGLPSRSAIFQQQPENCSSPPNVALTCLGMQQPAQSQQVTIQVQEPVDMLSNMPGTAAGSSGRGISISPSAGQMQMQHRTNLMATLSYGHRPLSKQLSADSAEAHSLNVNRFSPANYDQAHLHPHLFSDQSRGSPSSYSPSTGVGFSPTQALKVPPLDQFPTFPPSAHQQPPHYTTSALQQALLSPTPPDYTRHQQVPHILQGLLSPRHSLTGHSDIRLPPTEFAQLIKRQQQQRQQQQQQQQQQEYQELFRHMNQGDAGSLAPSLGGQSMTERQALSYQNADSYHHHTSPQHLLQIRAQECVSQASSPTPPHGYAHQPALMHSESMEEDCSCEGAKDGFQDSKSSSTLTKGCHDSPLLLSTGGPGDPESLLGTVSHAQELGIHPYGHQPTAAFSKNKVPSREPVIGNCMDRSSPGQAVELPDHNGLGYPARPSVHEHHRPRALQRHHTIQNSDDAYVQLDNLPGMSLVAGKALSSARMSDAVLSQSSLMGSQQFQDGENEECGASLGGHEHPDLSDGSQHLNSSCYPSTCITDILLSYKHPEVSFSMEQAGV

As to `COc1cc(-c2cnc3cc(-c4cnn(C)c4)ccn23)cc(OC)c1C(=O)NCC(F)(F)F` [Cpd 88], the IC50 at SIK3 [1], at SIK1 [2], on SIK2 [3], against SIK3 [6], on SIK1 [7] and on SIK2 [8] was 0.01 to 10 nM in each case. The half-maximal effective concentration (EC50) in test [4] and in test [9] was 0.1 to 100 nM in each case. In addition, in test [5], the “IL-10 FCmax median” value was “++ (>1.5-4.5)”.
With `COc1cc(-n2cnc3cc(-c4cnn(C5CN(C)C5)c4)ccc32)cc(OC)c1C(=O)NCC(F)(F)F` [Cpd 98, 2,6-dimethoxy-4-[5-[1-(1-methylazetidin-3-yl)pyrazol-4-yl]benzimidazol-1-yl]-N-(2,2,2-trifluoroethyl)benzamide], the IC50 on SIK3 [1] lay in the range of 0.01 to 10 nM; at SIK1 [2] it was 10 to 100 nM; on SIK2 [3], 0.01 to 10 nM; against SIK3 [6], 0.01 to 10 nM; against SIK1 [7] it was 0.01 to 10 nM; at SIK2 [8], 0.01 to 10 nM. The EC50 in test [4] and in [9] was 0.1 to 100 nM each time. Besides, the “IL-10 FCmax median” value in test [5] is “++ (>1.5-4.5)”.
Regarding `COc1cc(-c2cnc3cc(-c4cnn(C)c4)ccn23)cc(OC)c1C(=O)N1CC(F)(F)C1` [Cpd 173, (3,3-difluoroazetidin-1-yl)-[2,6-dimethoxy-4-[7-(1-methylpyrazol-4-yl)imidazo[1,2-a]pyridin-3-yl]phenyl]methanone], the IC50 at SIK3 [1] was 0.01 to 10 nM; at SIK1 [2], 10 to 100 nM; at SIK2 [3], 0.01 to 10 nM; on SIK3 [6], 0.01 to 10 nM; on SIK1 [7] it was 0.01 to 10 nM; against SIK2 [8] it was 0.01 to 10 nM. Also, the EC50 in test [4] and in test [9] was 0.1 to 100 nM in each case. The “IL-10 FCmax median” value in test [5] is on record as “++ (>1.5-4.5)”.
Consider `COc1cc(-c2cnc3cc(-c4cnn(C)c4)ccn23)cc(OC)c1C(=O)N[C@H](C)C(F)(F)F` [Cpd 174, 2,6-dimethoxy-4-[7-(1-methylpyrazol-4-yl)imidazo[1,2-a]pyridin-3-yl]-N-[(1R)-2,2,2-trifluoro-1-methyl-ethyl]benzamide], for which the IC50 against SIK3 [1], on SIK1 [2], on SIK2 [3], on SIK3 [6], against SIK1 [7] and on SIK2 [8] was 0.01 to 10 nM throughout. Further, the EC50 in test [4] and in test [9] was 0.1 to 100 nM throughout. In [5], the “IL-10 FCmax median” value is given as “++ (>1.5-4.5)”.
Take `COc1cc(-n2cnc3cc(-c4ccnc(N5CCN(C)CC5)c4)ccc32)cc(OC)c1C(=O)NCC(F)(F)F` [compound 120, 2,6-dimethoxy-4-[5-[2-(4-methylpiperazin-1-yl)-4-pyridyl]benzimidazol-1-yl]-N-(2,2,2-trifluoroethyl)benzamide]: the IC50 is 0.01 to 10 nM against SIK3 [1]; 10 to 100 nM at SIK1 [2]; 10 to 100 nM at SIK2 [3]; 0.01 to 10 nM on SIK3 [6]; 10 to 100 nM against SIK1 [7]; 0.01 to 10 nM against SIK2 [8]. Also, the EC50 in test [4] lay within 100 to 1000 nM; in test [9], 0.1 to 100 nM. In test [5], the “IL-10 FCmax median” value was “++ (>1.5-4.5)”.
Take `COc1cc(-c2cnc3cc(-c4cnn(C)c4)ccn23)cc(OC)c1C(=O)NCC#N` [compound 122, N-(cyanomethyl)-2,6-dimethoxy-4-[7-(1-methylpyrazol-4-yl)imidazo[1,2-a]pyridin-3-yl]benzamide]: the 50% inhibitory concentration (IC50) at SIK3 [1], at SIK1 [2] and on SIK2 [3] was 0.01 to 10 nM throughout. Besides, the EC50 in [4] and in [9] was 0.1 to 100 nM throughout. Also, the “IL-10 FCmax median” value in [5] is on record as “++ (>1.5-4.5)”.
Turning to `CCNC(=O)c1c(OC)cc(-c2cnc3cc(-c4cc(C)no4)ccn23)cc1OC(F)F` [compound 123, 2-(difluoromethoxy)-N-ethyl-6-methoxy-4-[7-(3-methylisoxazol-5-yl)imidazo[1,2-a]pyridin-3-yl]benzamide], the IC50 at SIK3 [1] fell in the range of 0.01 to 10 nM; at SIK1 [2], 10 to 100 nM; at SIK2 [3], 0.01 to 10 nM. The EC50 in test [4] and in test [9] was 0.1 to 100 nM each time. Further, in test [5], the “IL-10 FCmax median” value is “++ (>1.5-4.5)”.
Consider `COc1cc(-c2cnc3cc(-c4cnn(C)c4)ccn23)cc(OC)c1C(=O)N[C@@H](C)C(F)(F)F` [compound 132, 2,6-dimethoxy-4-[7-(1-methylpyrazol-4-yl)imidazo[1,2-a]pyridin-3-yl]-N-[(1S)-2,2,2-trifluoro-1-methyl-ethyl]benzamide], for which the IC50 on SIK3 [1], at SIK1 [2] and on SIK2 [3] was 10 to 100 nM each time. Besides, the EC50 in test [4] and in test [9] was 100 to 1000 nM each time. Moreover, in test [5], the “IL-10 FCmax median” value is “+ (≤1.5)”.
In the case of `CCN1Cc2cc(-c3cnc4cc(-c5cnn(C)c5)ccn34)cc(OC)c2C1=O` [compound 176, 2-ethyl-7-methoxy-5-[7-(1-methylpyrazol-4-yl)imidazo[1,2-a]pyridin-3-yl]isoindolin-1-one], the IC50 against SIK3 [1] was 10 to 100 nM; on SIK1 [2] it was 10 to 100 nM; at SIK2 [3], 10 to 100 nM; on SIK3 [6] it was 0.01 to 10 nM; against SIK1 [7] it was 10 to 100 nM; on SIK2 [8], 0.01 to 10 nM. Also, the concentration for a half-maximal effect (EC50) in test [4] lay within 100 to 1000 nM; in [9], 0.1 to 100 nM.
In the case of `CCNC(=O)c1c(OC)cc(-n2cnc3cc(-c4cnn(C)c4)cnc32)cc1OC(F)F` [compound 177, 2-(difluoromethoxy)-N-ethyl-6-methoxy-4-[6-(1-methylpyrazol-4-yl)imidazo[4,5-b]pyridin-3-yl]benzamide], the half-maximal inhibitory concentration (IC50) lay in the range of 10 to 100 nM on SIK3 [1]; 10 to 100 nM on SIK1 [2]; 10 to 100 nM on SIK2 [3]; 0.01 to 10 nM at SIK3 [6]; 10 to 100 nM against SIK1 [7]; 0.01 to 10 nM on SIK2 [8]. The EC50 in test [4] lay in the range of 100 to 1000 nM; in test [9] it was 0.1 to 100 nM.
For the compound `CCNC(=O)c1c(OC)cc(-c2cnc3cc(-c4cn(C)cn4)ccn23)cc1OC(F)F` [compound 178, 2-(difluoromethoxy)-N-ethyl-6-methoxy-4-[7-(1-methylimidazol-4-yl)imidazo[1,2-a]pyridin-3-yl]benzamide], the results for the IC50 on SIK3 [1], on SIK1 [2] and at SIK2 [3] were 0.01 to 10 nM, 10 to 100 nM and 0.01 to 10 nM, respectively. Also, the EC50 in test [4] and in test [9] was 0.1 to 100 nM each time. In addition, in test [5], the “IL-10 FCmax median” value is given as “++ (>1.5-4.5)”.
With `COc1cc(-n2cnc3cc(-c4cnn(C)c4)ccc32)cc(OC)c1C(=O)N1CC(C#N)C1` [compound 192, 1-[2,6-dimethoxy-4-[5-(1-methylpyrazol-4-yl)benzimidazol-1-yl]benzoyl]azetidine-3-carbonitrile], the IC50 is 10 to 100 nM against SIK3 [1]; 10 to 100 nM on SIK1 [2]; 10 to 100 nM at SIK2 [3]; 0.01 to 10 nM on SIK3 [6]; 10 to 100 nM against SIK1 [7]; 0.01 to 10 nM against SIK2 [8]. Besides, the EC50 in [4] and in test [9] was 100 to 1000 nM throughout.
With `COc1cc(-c2cnc3cc(-c4cnn(C)c4)ccn23)cc(F)c1C(=O)NCC(F)(F)F` [compound 203, 2-fluoro-6-methoxy-4-[7-(1-methylpyrazol-4-yl)imidazo[1,2-a]pyridin-3-yl]-N-(2,2,2-trifluoroethyl)benzamide], the figures for the IC50 against SIK3 [1], on SIK1 [2] and on SIK2 [3] were 0.01 to 10 nM, 10 to 100 nM and 0.01 to 10 nM, respectively. In addition, the EC50 in [4] and in test [9] was 0.1 to 100 nM each time. In addition, the “IL-10 FCmax median” value in [5] is listed as “+++ (>4.5)”.

One may read the IC50 as the concentration that inhibits the measured activity by half. One may read the EC50 as the concentration needed to bring the measured effect to its halfway point.
